Measured values published in patent publication US20200172486A1, “PYRIDONE COMPOUNDS AND AGRICULTURAL AND HORTICULTURAL FUNGICIDES CONTAINING THE SAME AS ACTIVE INGREDIENTS” (MITSUI CHEMICALS AGRO, INC., priority 2017, published 2020).

Key:
[1] = test system: cabbage alternaria sooty spot fungi (Alternaia brassicicola); assay: Test Example C: cabbage alternaria sooty spot, spray test on potted cabbage plants; settings: in Brassica oleracea, read-out: control value
Text: Control value=100{1−(n/3)}
Test plants (cabbage variety: Shikidori) were cultivated until the cotyledons extended after the sowing of seeds.

[2] = test system: cucumber anthracnose fungi (Colletotrichum orbiculare); assay: Test Example H: cucumber anthracnose, spray test on potted cucumber plants; settings: in Cucumis sativus, read-out: control value
[3] = test system: gray mold fungi (Botrytis cinerea); assay: Test Example B: tomato gray mold, spray test on potted tomato plants; settings: in Solanum lycopersicum, read-out: control value
Text: Control value=100{1−(n/3)}
Test plants (tomato variety: Oogata Fukuju) were cultivated until three to five first leaves (true leaves) appeared after the sowing of seeds.

Row | SMILES | pest or weed control at 250 ppm [1] [%] | pest or weed control at 250 ppm [2] [%] | pest or weed control at 250 ppm [3] [%]
1 | CCn1c(-c2c(F)cccc2F)c(NC(=O)OC(C)(C)C)cc(Cl)c1=O [Compound 1, tert-butyl (5-chloro-2-(2,6-difluorophenyl)-1-ethyl-6-oxo-1,6-dihydropyridin-3-yl)carbamate] | > 50 | – | –
2 | CCn1c(-c2c(F)cccc2F)c(N(C)C(=O)OC(C)(C)C)cc(Cl)c1=O [Compound 2, tert-butyl (5-chloro-2-(2,6-difluorophenyl)-1-ethyl-6-oxo-1,6-dihydropyridin-3-yl)(methyl)carbamate] | > 50 | – | –
3 | CCn1c(-c2c(F)cccc2F)c(NC)cc(Cl)c1=O [Compound 3, 3-chloro-6-(2,6-difluorophenyl)-1-ethyl-5-(methylamino)-pyridin-2(1H)-one] | > 50 | > 50 | –
4 | CCn1c(-c2c(F)cccc2F)c(N(C)C)cc(Cl)c1=O [Compound 4, 3-chloro-6-(2,6-difluorophenyl)-5-(dimethylamino)-1-ethyl-pyridin-2(1H)-one] | > 50 | > 50 | > 50
5 | CCN(C)c1cc(Cl)c(=O)n(CC)c1-c1c(F)cccc1F [Compound 5, 3-chloro-6-(2,6-difluorophenyl)-1-ethyl-5-(ethyl(methyl)-amino)pyridin-2(1H)-one] | > 50 | > 50 | > 50
6 | CCn1c(-c2c(F)cccc2F)c(N=CN2CCCC2)cc(Cl)c1=O [Compound 8, 3-chloro-6-(2,6-difluorophenyl)-1-ethyl-5-((pyrrolidin-1-yl-methylene)amino)pyridin-2(1H)-one] | > 50 | > 50 | > 50
7 | CCN(C(=O)OC(C)(C)C)c1cc(Cl)c(=O)n(CC)c1-c1ccc(F)cc1 [Compound 17, tert-butyl (5-chloro-1-ethyl-2-(4-fluorophenyl)-6-oxo-1,6-dihydropyridin-3-yl)(ethyl)carbamate] | – | > 50 | –
8 | CCNc1cc(Cl)c(=O)n(CC)c1-c1ccc(F)cc1 [Compound 20, 3-chloro-1-ethyl-5-(ethylamino)-6-(4-fluorophenyl)pyridin-2(1H)-one] | – | > 50 | –
9 | CCn1c(-c2ccc(F)cc2Cl)c(NC(=O)OC(C)(C)C)cc(Cl)c1=O [Compound 27, tert-butyl (5-chloro-2-(2-chloro-4-fluorophenyl)-1-ethyl-6-oxo-1,6-dihydropyridin-3-yl)carbamate] | – | – | > 50
10 | CCn1c(-c2ccc(F)cc2Cl)c(N)cc(Cl)c1=O [Compound 32, 5-amino-3-chloro-6-(2-chloro-4-fluorophenyl)-1-ethylpyridin-2(1H)-one] | – | > 50 | –
11 | CCn1c(-c2ccc(F)cc2Cl)c(N2CCCCC2)cc(Cl)c1=O [Compound 44, 3-chloro-6-(2-chloro-4-fluorophenyl)-1-ethyl-5-(piperidin-1-yl)pyridin-2(1H)-one] | > 50 | > 50 | > 50
12 | CCn1c(-c2c(F)cccc2F)c(N)cc(Cl)c1=O [Compound 59, 5-amino-3-chloro-6-(2,6-difluorophenyl)-1-ethylpyridin-2(1H)-one] | – | > 50 | –
13 | CCn1c(-c2c(F)cccc2F)c(Nc2ccccc2)cc(Cl)c1=O [compound 317, 3-chloro-6-(2,6-difluorophenyl)-1-ethyl-5-(phenylamino)pyridin-2(1H)-one] | > 50 | > 50 | > 50
14 | CCn1c(-c2ccc(F)cc2Cl)c(N2CCC(C)CC2)cc(Cl)c1=O [compound 365, 3-chloro-6-(2-chloro-4-fluorophenyl)-1-ethyl-5-(4-methyl-piperidin-1-yl)pyridin-2(1H)-one] | > 50 | > 50 | > 50
15 | CCn1c(-c2c(F)cccc2F)c(N2CCOCC2)cc(Cl)c1=O [compound 426, 3-chloro-6-(2,6-difluorophenyl)-1-ethyl-5-morpholinopyridin-2(1H)-one] | > 50 | > 50 | > 50
